Measurements published in US10308641B2, “Crystal form of 3-(6-(1-(2,2-difluorobenzo[d][1,3]dioxole-5-yl)cyclopropane formamido)-3-methylpyridine-2-yl)benzoic acid and preparation method thereof” (CRYSTAL PHARMATECH CO., LTD., priority 2015, dated 2019).
Values after ≈ are worked out from the molar mass of the structure shown.

Columns and labels:
Format in all cases: physicochemical
[1] = Hygroscopicity assessment by dynamic vapor sorption (DVS); details: for Weight Gain under 80% Relative Humidity: DVS
Method: Dynamic vapor sorption (DVS) data in the present disclosure was acquired by a SMS (Surface Measurement Systems Ltd.) DVS Intrinsic. About 10 mg of crystalline Form A of present disclosure was used for DVS test. The parameters of the dynamic vapor sorption (DVS) method of the present disclosure were as follows:
Gas and flow rate: N2, 200 mL/min
RH range: 0% RH to 95% RH
Maximum equilibrate time: 180 min
Humidity gradient: 10% (0% RH-90% RH), 5% (90% RH-95% RH).
About 12.2 mg of crystalline Form A of the present disclosure was used for hygroscopicity testing using dynamic vapor sorption (DVS), crystalline Form A underwent a 0-95%-0 cycle of the relative humidity (RH) change. 4. The XRPD patterns of crystalline Form A before and after hygroscopicity assessment are depicted in FIG. 6. The pattern above is before DVS and the below one is after DVS.
About hygroscopicity characterization description and definition of hygroscopicity (Chinese Pharmacopoeia 2010 edition appendix XIV Drug hygroscopic test guidelines, test at 25° C.+/−1° C., 80% Relative Humidity) • deliquescent: sufficient water is absorbed to form a liquid. • very hygroscopic: increase in mass is equal to or greater than 15%. • hygroscopic: increase in mass is less than 15% and equal to or greater than 2%. • slightly hygroscopic: increase in mass is less than 2% and equal to or greater than 0.2%. • no or almost no hygroscopic: increase in mass is less than 0.2%.

[2] = Stability assessment on storage (XRPD and purity)
Method: The crystalline Form A of the compound of formula (I) of the present disclosure was stored under 25° C./60% RH and 40° C./75% RH for 90 days. XRPD and purity of the samples were collected after storing for 15 days, 30 days and 90 days. […] The XRPD results of crystalline Form A before and after storing under 25° C./60% RH and 40° C./75% RH for 90 days are depicted in FIG. 7 (FIG. 7: the top, middle and bottom are initial crystalline Form A, crystalline Form A after storing at 25° C./60% RH and 40° C./75% RH for 90 days respectively).

[3] = Solubility comparison, saturated solutions in SGF, FeSSIF, FaSSIF and water, by HPLC; details: for Solubility FeSSIF: pH5.0 FeSSIF; for Solubility FaSSIF: pH6.5 FaSSIF
Method: Crystalline Form A of the present disclosure and Form I disclosed in CN101910156A are prepared into saturated solution in SGF (Simulated gastric fluids), pH5.0 FeSSIF (Fed state simulated intestinal fluids), pH6.5 FaSSIF (Fasted state simulated intestinal fluids) and water. Concentrations in the saturation solutions were tested after 1 hour, 4 hours and 24 hours by HPLC.

[4] = as above; details: FaSSIF, FeSSIF and H2O after 1 hour, 2 hours and 24 hours

| Solubility H2O ([3]; H2O, 1 hour) [µg/mL] | Solubility H2O ([3]; H2O, 4 hours) [µg/mL] | Solubility SGF ([3]; 1 hour) [ng/mL] | Solubility SGF ([3]; 4 hours) [ng/mL] | Solubility SGF ([3]; 24 hours) [ng/mL] | Solubility FeSSIF ([3]; 1 hour) [mg/mL] | Solubility FeSSIF ([3]; 4 hours) [mg/mL] | Solubility FeSSIF ([3]; 24 hours) [mg/mL] | Solubility FaSSIF ([3]; 1 hour) [µg/mL] | Solubility FaSSIF ([3]; 4 hours) [µg/mL] | Solubility FaSSIF ([3]; 24 hours) [µg/mL] | SMILES | also measured |
| --- | --- | --- | --- | --- | --- | --- | --- | --- | --- | --- | --- | --- |
| 8.6 (≈ 19 µM) | 16 (≈ 35.4 µM) | 900 (≈ 1.99 µM) | 1900 (≈ 4.2 µM) | 2000 (≈ 4.42 µM) | 0.017 (≈ 37.6 µM) | 0.018 (≈ 39.8 µM) | 0.02 (≈ 44.2 µM) | 8.2 (≈ 18.1 µM) | 11 (≈ 24.3 µM) | 9.5 (≈ 21 µM) | Cc1ccc(NC(=O)C2(c3ccc4c(c3)OC(F)(F)O4)CC2)nc1-c1cccc(C(=O)O)c1 [Form A, 3-(6-(1-(2,2-difluorobenzo [d] [1,3]dioxol-5-yl)cyclopropanecarboxamido)-3-methylpyridin-2-yl) benzoic acid] | Crystalline form after DVS test (XRPD before and after) ([1]; 0-95%-0 RH cycle): didn't change; Hygroscopicity class ([1]; Chinese Pharmacopoeia 2010 criteria, 25° C., 80% RH): non-hygroscopic or almost non-hygroscopic; Weight Gain under 80% Relative Humidity ([1]; 25° C., 80% RH, listed as Crystalline Form A of the compound of formula (I)): 0.10%; Weight Gain under 80% Relative Humidity ([1]; 25° C., 80% RH, listed as crystalline Form A of the compound of formula (I)): 0.10%; Stability (Purity %) 25° C./60% RH ([2]; 25° C./60% RH, 15 days): 99.94%; Stability (Purity %) 25° C./60% RH ([2]; 25° C./60% RH, 30 days): 99.90%; Stability (Purity %) 25° C./60% RH ([2]; 25° C./60% RH, 90 days): 99.93%; Stability under long-term stability condition ([2]; 25° C./60% RH, 90 days, XRPD and purity): stable; Stability (Purity %) 25° C./60% RH ([2]; 25° C./60% RH, Initial): 99.82%; Stability (Purity %) 40° C./75% RH ([2]; 40° C./75% RH, 15 days): 99.94%; Stability (Purity %) 40° C./75% RH ([2]; 40° C./75% RH, 30 days): 99.94%; Stability (Purity %) 40° C./75% RH ([2]; 40° C./75% RH, 90 days): 99.94%; Stability under accelerated stability condition ([2]; 40° C./75% RH, 90 days, XRPD and purity): stable; Stability (Purity %) 40° C./75% RH ([2]; 40° C./75% RH, Initial): 99.82%; solubility at 24 h ([3]; water, thermodynamic from solid, H2O, 24 hours): 25 µg/mL (≈ 55.3 µM); Solubility compared with Form I disclosed in CN101910156A [4]: higher |
| 2.2 (≈ 4.86 µM) | 6.7 (≈ 14.8 µM) | 400 (≈ 0.884 µM) | <220 | <210 | 0.0055 (≈ 12.2 µM) | 0.0059 (≈ 13 µM) | 0.0055 (≈ 12.2 µM) | 2.3 (≈ 5.08 µM) | 1.5 (≈ 3.32 µM) | 0.9 (≈ 1.99 µM) | Cc1ccc(NC(=O)C2(c3ccc4c(c3)OC(F)(F)O4)CC2)nc1-c1cccc(C(=O)O)c1 [Form I, 3-(6-(1-(2,2-difluorobenzo [d] [1,3]dioxol-5-yl)cyclopropanecarboxamido)-3-methylpyridin-2-yl) benzoic acid, reference compound] | Solubility H2O ([3]; H2O, 24 hours): 16 µg/mL (≈ 35.4 µM) |
